Results: publication PMC8791944, “GLUT3 inhibitor discovery through in silico ligand screening and in vivo validation in eukaryotic expression systems” (Scientific Reports, 2022)
Several values for one entry are separate records, joined by “and”; a condition that tells them apart may be missing. Identical values can stand only once. Entries after “also recorded” stand apart in the source; their conditions may differ.

Target: T1, GLUT4 (Homo sapiens, UniProt P14672)
T1 construct: expressed in transfected cells; host or cells: Saccharomyces cerevisiae hxt0 strain SDY.022 (EBY.S7 Δerg4)
T1 sequence (P14672 1-509): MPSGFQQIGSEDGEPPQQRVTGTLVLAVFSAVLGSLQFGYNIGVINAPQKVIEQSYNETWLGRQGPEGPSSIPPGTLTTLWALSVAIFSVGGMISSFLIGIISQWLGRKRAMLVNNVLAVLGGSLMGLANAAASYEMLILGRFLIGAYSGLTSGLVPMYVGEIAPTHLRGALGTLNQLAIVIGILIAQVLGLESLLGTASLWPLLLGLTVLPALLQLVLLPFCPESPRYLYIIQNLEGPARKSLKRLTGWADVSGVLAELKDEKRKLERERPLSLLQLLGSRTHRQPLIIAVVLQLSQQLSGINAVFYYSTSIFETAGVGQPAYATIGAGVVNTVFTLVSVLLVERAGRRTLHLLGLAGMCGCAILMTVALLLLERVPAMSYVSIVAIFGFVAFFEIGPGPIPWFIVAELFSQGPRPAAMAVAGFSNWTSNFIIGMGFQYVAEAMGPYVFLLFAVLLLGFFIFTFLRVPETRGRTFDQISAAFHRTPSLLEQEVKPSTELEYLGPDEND
Assay: Glucose transport assay, GLUT4 expressed in hxt^0 yeast cells SDY.022
Assay type: cell-based
Settings: for IC50: hxt^0 yeast cells, 5 mM glucose, read-out: IC50 for GLUT4 transport inhibition; for Potency for GLUT4 relative to GLUT3 (higher for GLUT4): IC50 GLUT4 versus IC50 GLUT3
Source text: The most studied GLUTs are Class 1 GLUTs (GLUT1-4) and a Class 2 GLUT, GLUT5 (a fructose-only transporter). GLUT3 sequence homology and identity is 79% and 64%, 71% and 52%, 74% and 57%, and 60% and 38% with GLUT1, GLUT2, GLUT4, and GLUT5, respectively. The hxt^0 yeast cell systems expressing functional GLUT1-4[65],[69] and GLUT5[66] allow us to determine the in vivo transport activity (substrate uptake by a GLUT into whole cells) for individual GLUTs and establish GLUT3 inhibitor selectivity for these transporters. The transport assay was performed as described for GLUT3, but at the substrate concentrations that correspond to the KM for each GLUT (i.e., 5 mM glucose for GLUT1 and GLUT4[65], 15 mM glucose for GLUT2∆loopS_Q455R[63], and 10 mM fructose for GLUT5S72Y[66]).
The transport activity was assayed as the substrate uptake in hexose transporter-deficient yeast cells expressing functional GLUT1[65], GLUT2[69], GLUT4[65], or GLUT5[66]. Substrate final concentration in the assay matched the corresponding substrate KM and was 5 mM glucose for GLUT1 and GLUT4, 15 mM glucose for GLUT2∆loopS_Q455R, and 10 mM fructose for GLUT5S72Y. Transport assay was initiated by the addition of C^14-labeled substrate and stopped after 10 min (see “Materials and methods” for details). […] Standard deviations for experimental points come from at least three independent measurements.
The plasmids containing functional constructs of GLUT1-5 were transformed in the corresponding hxt^0 strains[65],[66],[73] (EBY.VW4000 for GLUT5S72Y, EBY.S7 for GLUT1, GLUT2∆loopS_Q455R, GLUT3 and GLUT3S66Y, and SDY.022 for GLUT4) and grown on 2% (w/v) agar plates of the respective media supplemented with 1% (w/v) maltose. An initial culture of ~ 10 ml was started with a few colonies and grown for 2–3 days if the media was SC-uracil with 1% (w/v) maltose (GLUT1, GLUT3, GLUT4) or 1–2 days if the media was YEP with 1% (w/v) maltose and 100 µg/ml geneticin G418 (GLUT2∆loopS_Q455R and GLUT5S72Y). Cells were washed once in the corresponding media in which maltose was substituted with 0.1–2% hexose substrate for the expressing GLUT (i.e., SC-uracil, 2% (w/v) glucose for GLUT1; SC-uracil, 0.2% (w/v/) glucose for GLUT3 and GLUT4; YEP, 0.2% (w/v) glucose, 100 µg/ml geneticin G418 for GLUT2∆loopS_Q455R, and YEP, 2% (w/v) fructose for GLUT5 S72Y). Then, cells were transferred in the same media so that OD600nm ~ 0.5 and grown further for 1–2 days.
For transport activity assay, cells in the hexose media were centrifuged (1000×g, 5 min, room temperature), washed once with PBS buffer (10 mM Na2HPO4, 1.8 mM KH2PO4, 2.7 mM KCl, 137 mM NaCl, pH 7.4), and resuspended in PBS buffer at an OD600nm ~ 10; each assay contained 100 µl of this cell solution. Transport activity assay was started by adding C^14-hexose at a substrate concentration corresponding to the respective KM (5 mM glucose for GLUT1 or GLUT4, 3 mM glucose for GLUT3 or 1.5 mM glucose for GLUT3S66Y, 15 mM glucose for GLUT2∆loopS_Q455R, and 10 mM fructose for GLUT5S72Y); for determining the glucose KM in GLUT3 and GLUT3S66Y, substrate concentrations were varied accordingly. […] The filtration membranes were transferred into scintillation vials with 10 ml of Scintillation Solution (BioSafeII; Research Products International, Mount Prospect, IL, USA), and vortexed briefly. The radioactivity was determined with a scintillation counter (Tri-carb 2900TR, Perkin Elmer, USA).

With CC(=O)Nc1ccc(S(=O)(=O)Nc2ccc(Nc3cc(N(C)C)nc(C)n3)cc2)cc1 [G3iA, N-(4-{[(4-{[6-(dimethylamino)-2-methylpyrimidin-4-yl]amino}phenyl)amino]sulfonyl}phenyl)acetamide] as the molecule, how does the IC50 read?
Its IC50 is > 50 µM.

How did the IC50 turn out when Cc1cccnc1OC1CCN(c2cc(N3CCCC3CO)ncn2)CC1 (stereo not shown) [G3iC] was run?
The IC50 was 25.6 ± 6.6 µM.

Which Ki (2.5, 5 and 10 mM glucose, 0, 4 and 8 µM G3iD, read-out: Ki for GLUT4 inhibition (Dixon plot)) does the source give for Cc1cc(NC(=O)CCC2Cc3ccccc3NC2=O)nc(-c2ccccc2)n1 (stereo not shown) [G3iD] here?
Its Ki is 2.65 µM and ~2.7 µM.

And the “Inhibition mode in GLUT4” value (Dixon plot, versus glucose)?
Its value is “competitive with glucose; also recorded: competitive inhibitor; also recorded: competitive inhibition mode”.

What about the “Potency for GLUT4 relative to GLUT3 (higher for GLUT4)” value of the same molecule?
Its value is “~ fivefold”.

What about the IC50 of the same molecule?
Its IC50 is 3.88 ± 0.57 µM.

Which IC50 does the source give for O=C(Nc1cccc(Cl)c1)c1cccc(NC(=O)c2cccc([N+](=O)[O-])c2)c1 [G3iE, N-{3-[(3-chloroanilino)carbonyl]phenyl}-3-nitrobenzamide] here?
The IC50 was 12.4 ± 2.5 µM.

COc1ccccc1-n1c(/C=C/c2ccc(O)cc2)nc2ccc(Br)cc2c1=O [G3iB, 6-bromo-2-[(E)-2-(4-hydroxyphenyl)ethenyl]-3-(2-methoxyphenyl)quinazolin-4(3H)-one] was tested. Which IC50 did it give?
The IC50 was 12.7 ± 2.3 µM.

With Cc1ccccc1CN(Cc1nnc(C(C)(C)C)o1)c1ccc2nc(O)[nH]c2c1 [G3iF] as the molecule, how does the “Potency for GLUT4 relative to GLUT3 (higher for GLUT4)” value read?
Its value is “~ fivefold”.

And the IC50?
Its IC50 is 6.94 ± 1.37 µM.
